Laboratory results reported in ChEMBL document CHEMBL5543095 (Eur J Med Chem, 2024).
Active and inactive are the calls of the source. The rule behind the calls is not given here.

What was measured:
P-gp = test: Substrate activity at P-gp in MDCK-MDR1 cells assessed as efflux ratio of apparent permeability across basolateral to apical side over apical to basolateral side at 10 uM incubated for 90 mins by LC-MS/MS analysis; format: ADME, cell-based, Canis lupus familiaris; settings: dog
U-87MG ATCC [1] = test: Upregulation of CORO1A gene expression in human U87 cells by transcriptome analysis; format: functional, cell-based
Tubulin (Homo sapiens) [2] = molecular target: T1, Tubulin (Homo sapiens) (UniProt P68371+Q9H4B7+P0DPH7+P68366+Q13509+Q71U36+P04350+Q3ZCM7+P07437+P68363+Q9BQE3+Q6PEY2+Q13885+Q9BVA1+Q9BUF5); test: Inhibition of tubulin (unknown origin) polymerization assessed as reduction in polymerization rate by fluorescence based analysis; format: protein-complex assay; settings: dose 6-12 µM
Tubulin (Homo sapiens) [3] = molecular target: T1, Tubulin (Homo sapiens); test: Binding affinity to colchicine binding site of tubulin in human U87 cells assessed as inhibition of EBI-tubulin adduct formation by measuring disappearance of adduct bands pretreated for 2 hrs followed by EBI addition and measured after 2 hrs by Western blot analysis; format: cell-based; settings: dose 10-100 µM, time 4.0 hrs
U-87 MG [4] = test: Induction of apoptosis in human U87 cells assessed as live cells at 0.3125 uM incubated for 48 hrs by Annexin V-FITC/PI staining based flow cytometry analysis (reference value: 91.7%); format: functional, U-87MG ATCC
U-87MG ATCC [5] = test: Upregulation of NECTIN4 gene expression in human U87 cells by transcriptome analysis; format: functional, cell-based
U-87 MG [6] = test: Induction of cell cycle arrest in human U87 cells assessed as accumulation of cells at G1 phase at 2 uM measured after 48 hrs by PI staining based flow cytometry analysis (reference value: 72.6%); format: functional, U-87MG ATCC
U-87 MG [7] = test: Induction of cell cycle arrest in human U87 cells assessed as accumulation of cells at G1 phase at 4 uM measured after 48 hrs by PI staining based flow cytometry analysis (reference value: 72.6%); format: functional, U-87MG ATCC
U-87 MG [8] = test: Induction of apoptosis in human U87 cells assessed as live cells at 2.5 uM incubated for 48 hrs by Annexin V-FITC/PI staining based flow cytometry analysis (reference value: 91.7%); format: functional, U-87MG ATCC
U-87 MG [9] = test: Inhibition of cell migration in human U87 cells assessed as reduction in wound healing measured after 24 to 48 hrs by scratch assay; format: functional, cell-based; settings: U-87MG ATCC, dose 0-1 µM, time 24-48 hrs
GL261-Luc [10] = test: Antitumor activity against mouse GL261-Luc cells implanted in iv dosed C57BL/6 mouse assessed as inhibition of tumor growth administered every other day on day 0,2,4,6,8,10 and measured on day 12 by bioluminescence imaging analysis; format: functional, organism-based; settings: dose 5-10 mg/kg, time 12.0 day
U-87 MG [11] = test: Induction of apoptosis in human U87 cells assessed as early apoptotic cells at 0.625 uM incubated for 48 hrs by Annexin V-FITC/PI staining based flow cytometry analysis (reference value: 6.25%); format: functional, U-87MG ATCC
U-87 MG [12] = test: Induction of apoptosis in human U87 cells assessed as early apoptotic cells at 2.5 uM incubated for 48 hrs by Annexin V-FITC/PI staining based flow cytometry analysis (reference value: 6.25%); format: functional, U-87MG ATCC
Huh-7 = test: Antiproliferative activity against human Huh-7 cells assessed as inhibition of cell growth inhibition incubated for 48 hrs by CCK-8 assay; format: functional, cell-based; settings: Huh-7, 48 h
[13] = Toxicity in C57BL/6 mouse implanted with mouse GL261-Luc cells assessed as histopathological changes in heart at 5 to 10 mg/kg, iv administered every other day on day 0,2,4,6,8,10 and measured after 12 days by H and E staining based analysis; format: organism-based; settings: in vivo, 288 h, dose 5-10 mg/kg, time 12 day
U-87 MG [14] = test: Induction of cell cycle arrest in human U87 cells assessed as accumulation of cells at G1 phase at 0.5 uM measured after 48 hrs by PI staining based flow cytometry analysis (reference value: 72.6%); format: functional, U-87MG ATCC
Tubulin (Homo sapiens) [15] = molecular target: T1, Tubulin (Homo sapiens); test: Inhibition of tubulin (unknown origin) polymerization assessed as reduction in steady state content of tubulins at 6 to 12 uM by fluorescence based analysis; format: protein-complex assay; settings: dose 6-12 µM
U-87MG ATCC [16] = test: Downregulation of TUBB gene expression in human U87 cells by transcriptome analysis; format: functional, cell-based
[17] = Apparent permeability across basolateral to apical side in MDCK-MDR1 cells at 10 uM incubated for 90 mins by LC-MS/MS analysis; format: ADME, cell-based, Canis lupus familiaris; settings: dog
[18] = Toxicity in C57BL/6 mouse implanted with mouse GL261-Luc cells assessed as histopathological changes in spleen at 5 to 10 mg/kg, iv administered every other day on day 0,2,4,6,8,10 and measured after 12 days by H and E staining based analysis; format: organism-based; settings: in vivo, 288 h, dose 5-10 mg/kg, time 12 day
[19] = Toxicity in C57BL/6 mouse implanted with mouse GL261-Luc cells assessed as histopathological changes in lung at 5 to 10 mg/kg, iv administered every other day on day 0,2,4,6,8,10 and measured after 12 days by H and E staining based analysis; format: organism-based; settings: in vivo, 288 h, dose 5-10 mg/kg, time 12 day
U-87 MG [20] = test: Induction of apoptosis in human U87 cells assessed as early apoptotic cells at 1.25 uM incubated for 48 hrs by Annexin V-FITC/PI staining based flow cytometry analysis (reference value: 6.25%); format: functional, U-87MG ATCC
U-87 MG [21] = test: Induction of cell cycle arrest in human U87 cells assessed as accumulation of cells at G1 phase at 1 uM measured after 48 hrs by PI staining based flow cytometry analysis (reference value: 72.6%); format: functional, U-87MG ATCC
[22] = Toxicity in C57BL/6 mouse implanted with mouse GL261-Luc cells assessed as histopathological changes in liver at 5 to 10 mg/kg, iv administered every other day on day 0,2,4,6,8,10 and measured after 12 days by H and E staining based analysis; format: organism-based; settings: in vivo, 288 h, dose 5-10 mg/kg, time 12 day
A549 = test: Antiproliferative activity against human A549 cells assessed as inhibition of cell growth inhibition incubated for 48 hrs by CCK-8 assay; format: functional, cell-based; settings: A549, 48 h
GL261-Luc [23] = test: Antivascular activity against mouse GL261-Luc cells implanted in C57BL/6 mouse assessed as reduction in tumor microvessel density at 5 to 10 mg/kg, iv administered every other day on day 0,2,4,6,8,10 and measured after 12 days by IHC staining based analysis; format: functional, organism-based; settings: dose 5-10 mg/kg, time 12.0 day
U-87 MG [24] = test: Induction of cell cycle arrest in human U87 cells assessed as accumulation of cells at […] at 1 uM measured after 48 hrs by PI staining based flow cytometry analysis (reference value: 8.55%); format: functional, U-87MG ATCC
U-87 MG [25] = test: Induction of cell cycle arrest in human U87 cells assessed as accumulation of cells at […] at 2 uM measured after 48 hrs by PI staining based flow cytometry analysis (reference value: 8.55%); format: functional, U-87MG ATCC
U-87 MG [26] = test: Antiproliferative activity against human U87 cells assessed as inhibition of cell growth inhibition incubated for 48 hrs by CCK-8 assay; format: functional, cell-based, U-87MG ATCC
[27] = Apparent permeability across apical to basolateral side in MDCK-MDR1 cells at 10 uM incubated for 90 mins by LC-MS/MS analysis; format: ADME, cell-based, Canis lupus familiaris; settings: dog
U-87 MG [28] = test: Induction of apoptosis in human U87 cells assessed as early apoptotic cells at 0.3125 uM incubated for 48 hrs by Annexin V-FITC/PI staining based flow cytometry analysis (reference value: 6.25%); format: functional, U-87MG ATCC
GL261-Luc [29] = test: Antitumor activity against mouse GL261-Luc cells implanted in C57BL/6 mouse assessed as prolongation of animal survival time at 5 to 10 mg/kg, iv administered every other day on day 0,2,4,6,8,10 and measured after 12 days; format: functional, organism-based; settings: dose 5-10 mg/kg, time 12.0 day

For `Cc1ccc2ccc3c(c2n1)OC(N)=C(C#N)C3c1ccccc1` (configuration not stated), the efflux ratio at 1.5 h, 10 µM (P-gp) was 0.76, the Activity (U-87MG ATCC [1]) was “Active” and the inhibition (Tubulin (Homo sapiens) [2]) was “Dose-Dependent Effect”. The Activity (Tubulin (Homo sapiens) [3]) was “Dose-Dependent Effect”, the Activity (U-87 MG [4]) was 88.1% and the Activity (U-87MG ATCC [5]) was “Active”. For the same compound, the Activity (U-87 MG [6]) was 14.4%, the Activity (U-87 MG [7]) was 13% and the Activity (U-87 MG [8]) was 62.5%. For the same compound, the inhibition (U-87 MG [9]) was “Dose-Dependent Effect”, the Activity (GL261-Luc [10]) was “Dose-Dependent Effect” and the Activity (U-87 MG [11]) was 16.1%. The Activity (U-87 MG [12]) was 20.6%, the IC50 (Huh-7) was 1.19 µM and the Activity [13] was “Non-Toxic”. The Activity (U-87 MG [14]) was 72%, the inhibition (Tubulin (Homo sapiens) [15]) was “Active” and the Activity (U-87MG ATCC [16]) was “Active”. For the same compound, the Papp B→A at 1.5 h, 10 µM [17] was 258 nm/s, the Activity [18] was “Non-Toxic” and the Activity [19] was “Non-Toxic”. For the same compound, the Activity (U-87 MG [20]) was 21.2%, the Activity (U-87 MG [21]) was 33% and the Activity [22] was “Non-Toxic”. For the same compound, the IC50 (A549) was 0.88 µM, the Activity (GL261-Luc [23]) was “Active” and the Activity (U-87 MG [24]) was 24.6%. For the same compound, the Activity (U-87 MG [25]) was 56.2%, the IC50 (U-87 MG [26]) was 0.9 µM and the Papp A→B at 1.5 h, 10 µM [27] was 337 nm/s. For the same compound, the Activity (U-87 MG [28]) was 7.01% and the Activity (GL261-Luc [29]) was “Active”.
